Source: PMC10112504, “Novel 4-thiophenyl-pyrazole, pyridine, and pyrimidine derivatives as potential antitumor candidates targeting both EGFR and VEGFR-2; design, synthesis, biological evaluations, and in silico studies” (RSC Advances, 2023)
Read-outs that look alike come from different tables or passages of the source.

What was measured:
HepG-2 = assay: Anti-proliferative activity, SRB colorimetric assay; type: cell-based; conditions: for IC50: HepG-2 cancer cell line, SRB assay, read-out: Cell lines (IC50 μM) HepG-2; for anti-proliferative activity against HepG-2, in words: authors' grading of Table 1 values, key not given
MCF-7 = assay: as above; type: cell-based; conditions: for IC50: Homo sapiens, MCF7, MCF-7 cancer cell line, SRB assay, read-out: Cell lines (IC50 μM) MCF-7; for anti-proliferative activity against MCF-7, in words: authors' grading of Table 1 values, key not given
S. aureus = assay: Antibacterial activity, inhibition zone approach; type: cell-based, Staphylococcus aureus; conditions: for S. aureus Diameter of inhibition zone (mm): Gram-positive bacteria; for antimicrobial activity with S. aureus, in words: authors' grading of Table 2 values, key not given; for S. aureus % Activity index: gentamicin = 100
B. subtilis = assay: Antibacterial activity, inhibition zone approach; type: cell-based, Bacillus subtilis; conditions: for B. subtilis Diameter of inhibition zone (mm): Gram-positive bacteria; for antimicrobial activity with B. subtilis, in words: authors' grading of Table 2 values, key not given; for B. subtilis % Activity index: gentamicin = 100
E. coli = assay: Antibacterial activity, inhibition zone approach; type: cell-based, Escherichia coli; conditions: for E. coli Diameter of inhibition zone (mm): Gram-negative bacteria; for antimicrobial activity with E. coli, in words: authors' grading of Table 2 values, key not given; for E. coli % Activity index: gentamicin = 100
P. aeuroginosa = assay: Antibacterial activity, inhibition zone approach; type: cell-based, Pseudomonas aeuroginosa; conditions: for P. aeuroginosa Diameter of inhibition zone (mm): Gram-negative bacteria; for antimicrobial activity with P. aeuroginosa, in words: authors' grading of Table 2 values, key not given; for P. aeuroginosa % Activity index: gentamicin = 100
C. albicans = assay: Antifungal activity, inhibition zone approach; type: cell-based, Candida albicans; conditions: for C. albicans Diameter of inhibition zone (mm): Fungi; for antimicrobial activity with C. albicans, in words: authors' grading of Table 2 values, key not given; for C. albicans % Activity index: ketoconazole = 100
A. flavus = assay: Antifungal activity, inhibition zone approach; type: cell-based, Aspergillus flavus; conditions: for A. flavus Diameter of inhibition zone (mm): Fungi; for antimicrobial activity with A. flavus, in words: authors' grading of Table 2 values, key not given; for A. flavus % Activity index: ketoconazole = 100

| SMILES | IC50 (HepG-2; Homo sapiens, HepG2) [µM] | IC50 (MCF-7) [µM] | S. aureus Diameter of inhibition zone (mm) (S. aureus) | B. subtilis Diameter of inhibition zone (mm) (B. subtilis) | E. coli Diameter of inhibition zone (mm) (E. coli) | P. aeuroginosa Diameter of inhibition zone (mm) (P. aeuroginosa) | C. albicans Diameter of inhibition zone (mm) (C. albicans) | A. flavus Diameter of inhibition zone (mm) (A. flavus) | S. aureus % Activity index (S. aureus) [%] | B. subtilis % Activity index (B. subtilis) [%] | P. aeuroginosa % Activity index (P. aeuroginosa) [%] | C. albicans % Activity index (C. albicans) [%] | A. flavus % Activity index (A. flavus) [%] | melting point [°C] | other results |
| --- | --- | --- | --- | --- | --- | --- | --- | --- | --- | --- | --- | --- | --- | --- | --- |
| Nc1nc(-c2ccc(O)cc2)cc(-c2cccs2)n1 [11a, 4-(2-amino-6-(thiophen-2-yl)pyrimidin-4-yl)phenol] | 52.9 ± 2.9 | 61.1 ± 3.4 | 7 | 10 | 6 | 11 | 11 | 7 |  |  |  |  |  |  | antimicrobial activity with S. aureus, in words (S. aureus): moderate; antimicrobial activity with B. subtilis, in words (B. subtilis): moderate; antimicrobial activity with E. coli, in words (E. coli): very strong; antimicrobial activity with P. aeuroginosa, in words (P. aeuroginosa): moderate; antimicrobial activity with C. albicans, in words (C. albicans): moderate; antimicrobial activity with A. flavus, in words (A. flavus): weak |
| NC(=S)n1nc(-c2ccc(O)cc2)cc1-c1cccs1 [10a, 3-(4-hydroxyphenyl)-5-(thiophen-2-yl)-1H-pyrazole-1-carbothioamide] | 39.1 ± 2.4 | 23.7 ± 1.7 | 9 | 13 | 8 | 12 | 13 | 11 | 50.0 | 59.1 | 63.1 | 46.4 | 42.3 | 195 to 197 | anti-proliferative activity against HepG-2, in words (HepG-2): moderate; anti-proliferative activity against MCF-7, in words (MCF-7): moderate; antimicrobial activity with S. aureus, in words (S. aureus): moderate; antimicrobial activity with B. subtilis, in words (B. subtilis): moderate; antimicrobial activity with E. coli, in words (E. coli): moderate; E. coli % Activity index (E. coli): 38.1%; antimicrobial activity with P. aeuroginosa, in words (P. aeuroginosa): moderate; antimicrobial activity with C. albicans, in words (C. albicans): moderate; antimicrobial activity with A. flavus, in words (A. flavus): moderate |
| N#Cc1c(-c2cccs2)cc(-c2ccc(O)cc2)nc1O [5a, 2-hydroxy-6-(4-hydroxyphenyl)-4-(thiophen-2-yl)nicotinonitrile] | 43 ± 2.5 | 38.4 ± 2.5 | 6 | 10 | 5 | 10 | 14 | 8 | 33.3 | 45.4 | 52.6 | 50.0 | 30.8 | 200 | anti-proliferative activity against HepG-2, in words (HepG-2): moderate; anti-proliferative activity against MCF-7, in words (MCF-7): moderate; E. coli % Activity index (E. coli): 23.8% |
| COc1cccc2c1C(=O)c1c(O)c3c(c(O)c1C2=O)C[C@@](O)(C(=O)CO)C[C@@H]3O[C@H]1C[C@H](N)[C@H](O)[C@H](C)O1 [DOX, reference compound] |  |  |  |  |  |  |  |  |  |  |  |  |  |  | IC50 (HepG-2): 4.5 ± 0.2 µM |
| O=C(/C=C/c1cccs1)c1ccc(O)cc1 [1a, (E)-1-(4-hydroxyphenyl)-3-(thiophen-2-yl)prop-2-en-1-one] | 87.6 ± 4.2 | 82.5 ± 4.2 |  |  |  |  | 3 |  |  |  |  | 10.7 |  |  |  |
| Oc1ccc(C2=NN(C(=S)Nc3ccccc3)C(c3cccs3)C2)cc1 (stereo not drawn) [14a, 3-(4-hydroxyphenyl)-N-phenyl-5-(thiophen-2-yl)-4,5-dihydro-1H-pyrazole-1-carbothioamide] |  |  |  |  |  |  |  |  |  |  |  |  |  | 245 to 247 |  |
| O=C(/C=C/c1cccs1)c1ccc(Cl)c(Cl)c1 [1b, (E)-1-(3,4-dichlorophenyl)-3-(thiophen-2-yl)prop-2-en-1-one] | 84.2 ± 4.2 | > 100 |  |  |  |  |  |  |  |  |  |  |  | 85 |  |
| CNC(C)C1CCC(N)C(OC2C(N)CC(N)C(OC3OCC(C)(O)C(NC)C3O)C2O)O1 (stereo not drawn) [Gentamicin, reference compound] |  |  | 18 | 22 | 21 | 19 |  |  | 100 | 100 | 100 |  |  |  | E. coli % Activity index (E. coli): 100% |
| CC(=O)N1CCN(c2ccc(OCC3COC(Cn4ccnc4)(c4ccc(Cl)cc4Cl)O3)cc2)CC1 (stereo not drawn) [Ketoconazole, reference compound] |  |  |  |  |  |  | 28 | 26 |  |  |  | 100 | 100 |  |  |
| Oc1ccc(-c2cc(-c3cccs3)n(-c3nc4nc5ccccc5nc4s3)n2)cc1 [12a, 4-(1-(thiazolo[4,5-b]quinoxalin-2-yl)-5-(thiophen-2-yl)-1H-pyrazol-3-yl)phenol] | 74.7 ± 3.9 | 65 ± 3.6 |  | 5 |  | 3 | 6 |  |  | 22.7 | 15.8 | 21.4 |  | 250 to 252 |  |
| CC(=O)N1N=C(c2ccc(Cl)c(Cl)c2)CC1c1cccs1 (stereo not drawn) [8b, 1-(3-(3,4-dichlorophenyl)-5-(thiophen-2-yl)-4,5-dihydro-1H-pyrazol-1-yl)ethan-1-one] | 74.3 ± 3.5 | 72.6 ± 3.9 | 3 | 7 |  | 4 | 9 | 5 | 16.7 | 31.8 | 21.0 | 32.1 | 19.2 | 160 |  |
| Clc1ccc(C2=NN(c3ccccc3)C(c3cccs3)C2)cc1Cl (stereo not drawn) [9b, 3-(3,4-dichlorophenyl)-1-phenyl-5-(thiophen-2-yl)-4,5-dihydro-1H-pyrazole] | 48.1 ± 2.7 | 67.3 ± 3.7 |  | 6 |  |  | 8 | 3 |  | 27.3 |  | 28.6 | 11.5 | 130 |  |
| N#Cc1c(-c2cccs2)cc(-c2ccc(Cl)c(Cl)c2)nc1N [2b, 2-Amino-6-(3,4-dichlorophenyl)-4-(thiophen-2-yl)nicotinonitrile] | 59.5 ± 3.1 | 55.5 ± 3.2 | 9 | 14 | 8 | 11 | 17 | 10 |  |  |  |  |  |  | antimicrobial activity with S. aureus, in words (S. aureus): moderate; antimicrobial activity with B. subtilis, in words (B. subtilis): strong; antimicrobial activity with E. coli, in words (E. coli): moderate; antimicrobial activity with P. aeuroginosa, in words (P. aeuroginosa): strong; antimicrobial activity with C. albicans, in words (C. albicans): strong; antimicrobial activity with A. flavus, in words (A. flavus): moderate |
